Our source for the EC50 values is article doi:10.1101/2022.12.30.522309v1 (biorxiv, 2022).

The assay concerns the target T1, human FFA2R (Homo sapiens, UniProt O15552).
T1 sequence (O15552 1-330): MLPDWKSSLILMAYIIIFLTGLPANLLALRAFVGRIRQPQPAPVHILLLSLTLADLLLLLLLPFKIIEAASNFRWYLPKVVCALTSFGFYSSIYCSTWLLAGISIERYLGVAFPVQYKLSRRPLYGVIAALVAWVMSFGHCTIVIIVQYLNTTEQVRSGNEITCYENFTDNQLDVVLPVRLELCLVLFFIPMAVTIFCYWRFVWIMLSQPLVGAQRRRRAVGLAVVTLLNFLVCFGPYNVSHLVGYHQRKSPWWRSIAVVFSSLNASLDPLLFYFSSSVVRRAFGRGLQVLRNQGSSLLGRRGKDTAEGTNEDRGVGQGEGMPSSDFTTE
As to the kind of experiment: inhibition of forskolin-induced cAMP, LANCE Ultra TR-FRET, HEK293. The class given is cell-based.

`CC(=O)CC(=O)O` [acetoacetate] registered an EC50 of 1240 µM.
